The source of these data is patent US7230139B2, “Diterpenoid compounds, compositions thereof and their use as anti-cancer or anti-fungal agents” (priority 2004, dated 2007).

Data set [1] in a line: Solubility by filtration and LC/MS. In kind it is physicochemical. Conditions: in water (printed for Compound 74). As to the method:
To determine whether a compound is soluble in a solution, the solution was filtered on […] polytetrafluoroethylene filters (Whatman Inc. Clifton, N.J., USA) and the compound concentration in the filtrate was measured by LC/MS and compared to the expected concentration. If the concentration of the compound in the filtrate was equal +/−15% to the expected concentration, the compound was judged to be soluble in the solution.
The detection of Compound 74 or Compound 50 by LC/MS was carried out using the HPLC system that consisted of a Waters Alliance quaternary gradient HPLC pump (Waters, Milford, Mass., USA) and a ZQ2000 single quadrupole mass spectrometer (Waters, Milford, Mass., USA). The column used was XTerra MS C18: 50×2.1 mm, […] column at 20° C. Samples were injected and separated under the following conditions: The mobile phase “A” consisted of 5 mM ammonium formate, 0.1% formic acid in water and mobile phase “B” consisted of 5 mM ammonium formate, 0.1% formic acid in methanol. A linear gradient was applied as follows: 0 to 1 min, 94% “A” and 6% “B”; 1 to 4 min, 6% to 100% “B”; 4 to 8 min 100% “B”; 8 to 9 min, 100% “B” to 6% “B”; 9 to 12 min, 94% “A” and 6% “B”. […] Compounds were detected at m/z equal to their respective molecular weight plus 1.

Data set [2] is described as follows: Body weight of SW480 tumor-bearing mice. The following applies: i.v. once daily for five days; 10 mg/kg (50, 50a, 50b), 50 mg/kg (74a). The class given is in vivo, CB17 SCID/SCID female mice. As for the experimental part: SW480 cells were transplanted subcutaneously into the flank of female CB 17 SCID/SCID mice. Each mouse was inoculated with a suspension of 1×10^6 tumor cells per 100 μL on day zero. The following five treatment groups of ten mice each were used: (a) a negative control group treated with intravenous (i.v.) injection of vehicle, (b) a group treated with i.v. injection of a Compound 50, (c) a group treated with i.v. injection of a Compound 50a, (d) a group treated with i.v. injection of Compound 50b, (e) a group treated with i.v. injection of Compound 74a.
Treatment started on day twelve after SW480 cells transplantation and Compounds 50, 50a, 50b and 74a were administered i.v. once daily for five consecutive days at a dose of 10, 10, 10 and 50 mg/kg, respectively. Compound 50, 50a and 50b were prepared as a working solution of 1.5 mg/mL in a vehicle solution of 20% Cremaphor EL (Sigma, St. Louis, Miss., USA), and 10% Ethanol. Compound 74a was prepared as a working solution of 5 mg/mL in a vehicle solution of 5% Dextrose (Abbot Laboratories, QC, Canada). The negative control groups were treated with vehicle solution of 20% Cremaphor EL and 10% Ethanol alone.
The mice were weighed and the tumors measured on day 12 and every 2 to 3 days after treatment commenced. Observations continued for 23 days after initial tumor implantation. The changes in body weight and in the calculated tumor volume were plotted (FIGS. 9 and 10). Statistical analysis was performed using GraphPad Prism (GraphPad Software Inc., San Diego, Calif.). Two-way ANOVA was used to determine how the treatment affected tumor growth over time. Following the two-way ANOVA, post-tests were performed using the Benferroni method to determine the statistical difference between the mean tumor-size of the two groups being compared on every day that the tumors were measured.

Data set [3] deals with Saccharomyces cerevisiae strain W303a. Description: Yeast growth inhibition (OD600). Conditions: dilution series, YEP with glucose, galactose or glycerol, 30° C.; dose-dependent. The class given is cell-based. As for the experimental part: Yeast cells were first cultured overnight in 10 mL of YEP glucose-containing medium at 30° C. The following day, 5 μL of the overnight culture (5–6×10^3 cells) was added to 100 μL of YEP media supplemented with 2% of one of the three carbon sources mentioned above in a 96-well microtitre plate. To these cultures a dilution series of Compound 50 was added. Compound 50 was prepared as a stock solution in 100% dimethyl sulfoxide (DMSO) at a concentration of 10 mM. Serial dilutions were prepared in distilled water. The final DMSO concentration in each well was 0.5%. Yeast cells were grown at 30° C. and cell growth was monitored by reading the OD600 (optical density at 600 nm) with a Tecan ULTRA plate reader (TECAN U.S. Inc., Research Triangle Park, N.C., USA). […] Accordingly, Compound 50, an illustrative Diterpenoid Compound, is useful for inhibiting the growth of a fungus or treating a fungal infection.

The solubility is the dissolved amount per volume that the medium holds. Read a low solubility as little dissolved substance. Compound `COc1ccc2c(c1)C1(C)C=CC(=O)C(C)(C)C1=C(O)C2=O` (racemic) [Compound 50] displayed a solubility in data set [1] of under 100 µg/mL. In data set [2], the “Change in body weight” value is given as “non-significant change in body weight”. In addition, the “Growth of Saccharomyces cerevisiae” value in data set [3] is listed as “significantly inhibited growth”.
